Common to all, as to test: SPR equilibrium binding to sparsely-tethered bilayer (stBLM)
Test [1] deals with T1, wt PTEN (Homo sapiens, UniProt P60484, C124S).
T1 construct: full-length, six-histidine tag at the C-terminus, expressed in Escherichia coli BL21 (DE3)
An excerpt:
(§1) SPR equilibrium binding to sparsely-tethered bilayer (stBLM) on wt PTEN

Test [2] has as its target T2, wt PTEN (Homo sapiens, UniProt P60484).
T2 construct: full-length, six-histidine tag at the C-terminus, expressed in Escherichia coli BL21 (DE3)
Conditions: for Kd: read-out: Kd (μM) / Component a.
Text: as §1

A further test concerns the target T3, truncated PTEN (Homo sapiens, UniProt P60484, DEL286-309).
T3 construct: crystallization construct: residues 1-6, loop 286-309 and C-terminal tail 354-403 deleted; plasmid from N. R. Leslie; expressed in E. coli, His-tag purified
The note with it: DOPC:PI(4,5)P2 97.8:2.2 bilayer, pH 7.0, room temperature. An excerpt:
SPR equilibrium binding to sparsely-tethered bilayer (stBLM) on truncated PTEN

For test [3], the target named is T4, wt PTEN (Homo sapiens, UniProt P60484, H93R).
T4 construct: full-length, six-histidine tag at the C-terminus, expressed in Escherichia coli BL21 (DE3)
The note with it: DOPC:PI(4,5)P2 97.8:2.2 bilayer, pH 7.0, room temperature.
Text: as §1

Read-outs that look alike come from different tables or passages of the source.

In turn, `CCCCCCCCCCCCCCCC(=O)OC[C@H](COP(=O)(O)O[C@H]1[C@H](O)[C@@H](OP(=O)(O)O)[C@H](OP(=O)(O)O)[C@@H](OP(=O)(O)O)[C@H]1O)OC(=O)CCCCCCCCCCCCCCC` [PI(3,4,5)P3] returned a Kd on wt PTEN [1] of 120 ± 30 nM. The “Kd (μM) / Component a” value on wt PTEN [2] (DOPC:PI(3,4,5)P3 97.9:2.1 bilayer, pH 7.0, room temperature, unreliable (active enzyme likely converts the lipid during the measurement)) came to 2.4 ± 0.2 µM.

For `CCCCCCCCCCCCCCCC(=O)OC[C@H](COP(=O)(O)O[C@@H]1[C@H](O)[C@H](O)[C@@H](OP(=O)(O)O)[C@H](OP(=O)(O)O)[C@H]1O)OC(=O)CCCCCCCCCCCCCCC` [DPPI(4,5)P2], at wt PTEN [2], the Kd was found to be 1.9 ± 0.3 µM.

PI(4,5)P2: the Kd came out at 770 ± 70 nM at truncated PTEN; 320 ± 30 nM at wt PTEN [1] (DOPC:PI(4,5)P2 97.8:2.2 bilayer, pH 7.0, room temperature); 1300 ± 200 nM at wt PTEN [3]; 0.4 ± 0.1 µM at wt PTEN [2] (DOPC:PI(4,5)P2 97.8:2.2 bilayer (same Kd at 0.7 and 3.7 mol%), 100 mM NaCl, 10 mM HEPES, 1 mM EDTA, pH 7.0, room temperature, Kd as protein concentration at half saturation).

Source of the values: article PMC3323581, “Membrane Association of the PTEN Tumor Suppressor: Molecular Details of the Protein-Membrane Complex from SPR Binding Studies and Neutron Reflection” (PLoS ONE, 2012).
